Assays:
[1] = target: T1, GST-STING139-378 (Mus musculus, UniProt Q3TBT3); test: Pull-down using biotinylated Ap4A and recombinant proteins (in vitro binding and competition); details: for Competition for the binding of STING to biotinylated Ap4A: 10-fold excess of the competitor, 1 h at 4° C.
T1 construct: GST-STING (aa 139-378); made in house; host or cells: Escherichia coli BL21
T1 sequence (Q3TBT3 139-378): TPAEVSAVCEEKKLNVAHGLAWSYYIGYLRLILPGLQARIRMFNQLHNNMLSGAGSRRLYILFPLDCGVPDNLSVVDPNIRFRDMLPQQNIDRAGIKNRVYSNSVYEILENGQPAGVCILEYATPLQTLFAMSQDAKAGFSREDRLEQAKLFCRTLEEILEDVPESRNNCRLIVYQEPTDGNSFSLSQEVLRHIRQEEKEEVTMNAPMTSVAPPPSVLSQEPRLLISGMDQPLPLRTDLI

[2] = test system: MEF^Trex1−/−; test: Ifnβ / type I interferon mRNA levels (RT-qPCR) in treated MEF^Trex1−/−; assay type: cell-based, mouse; details: 500 μM
Description: (§1) RNA extraction and RT-qPCR RNA was extracted using Trizol (Invitrogen) and treated with TURBO DNase (Ambion) according to manufacturers' protocols. Reverse transcription (SuperScript IV reverse transcriptase; Invitrogen) and qPCR using specific primers were performed using SYBR GREEN (Takara) master mix and LightCycler 480 cycler (Roche). mRNA levels were normalized to Gapdh mRNA levels except in zebrafish experiments where mRNA levels were normalized to zebrafish actin (zactin).
(§2) Cells were transfected with JetPrime transfection reagent (Polyplus) at 1:2 ratio with various nucleic acids at 2 μg/ml. […] Ap4A or STAN-1 (Sigma Aldrich) were used at 500 μM in Optimem.
Next, to test whether Ap4A inhibits inflammatory responses via a STING-dependent mechanism, the inventors used three-prime repair exonuclease 1 (Trex1)-deficient mouse embryonic fibroblasts (MEF^Trex1−/−—FIG. S1D), as these are a well-characterized model of pathologic chronic inflammation with STING-dependent elevated Ifnβ levels (FIG. S1D)—(15, 16). First, the inventors treated MEF^Trex1−/− with Ap4A for 45, 90 and 180 min. […] To further assess the impact of Ap4A on STING activation and to avoid potential side effects of the addition of exogenous Ap4A to cells, the inventors next performed experiments where they modulate the expression levels of LysRS, the main producer of Ap4A (9, 10). […]

[3] = test system: WT-MEF; test: DMXAA-induced Ifnβ expression in WT-MEF; assay type: cell-based, mouse; details: 200 μM DMXAA, treated with Ap4A for 2 h
Description: Data are normalized to non-treated control. Unpaired t-test. **: p<0.005.
as §1, §2

[4] = test system: MEF^STING−/−; test: DMXAA-induced Ifnβ expression in STING knockout MEF; assay type: cell-based, mouse; details: 200 μM DMXAA, treated with Ap4A for 2 h
Description: Data are normalized to non-treated control.
as §1, §2

| Compound | Competition for the binding of STING to biotinylated Ap4A [1] | Interaction of STING139-378 with Streptavidin-immobilized biotinylated Ap4A ([1]; Western blotting of pull-down) | type I interferon expression (IFNα and IFNβ mRNA levels) ([2]; 3 hrs, RT-qPCR) | Ifnβ mRNA levels ([2]; Ap4A 45, 90 and 180 min, STAN-1 3 h, versus untreated) | Ability of DMXAA to induce Ifnβ expression on co-treatment [3] | Ability of DMXAA to induce Ifnβ expression on co-treatment [4] |
| --- | --- | --- | --- | --- | --- | --- |
| Nc1ncnc2c1ncn2[C@@H]1O[C@H](COP(=O)(O)OP(=O)(O)OP(=O)(O)OP(=O)(O)OC[C@H]2O[C@@H](n3cnc4c(N)ncnc43)[C@H](O)[C@@H]2O)[C@@H](O)[C@H]1O [Ap4A, Diadenosine tetraphosphate] | specific | interacts | decreases type I interferon expression | decreased Ifni mRNA levels | by half | no decrease was observed |
| cyclic GMP-AMP [cGAMP] | displaced | – | – | – | – | – |
